From ChEMBL document CHEMBL1121424, “Orally active cephalosporins and penicillins” (J Med Chem, 1980)
Values after ≈ are worked out from the molar mass of the structure shown.

Assays:
Type in all cases: functional
Enterobacter cloacae = experiment: Tested for inhibition of visible growth of Enterobacter cloacae
Klebsiella aerogenes = experiment: Tested for inhibition of visible growth of Enterobacter aerogenes
Escherichia coli [1] = experiment: Tested for inhibition of visible growth of Escherichia coli
Proteus mirabilis = experiment: Tested for inhibition of visible growth of Proteus mirabilis
[2] = Tested for inhibition of visible growth of Salmonella schottmuelleri
Staphylococcus aureus [3] = experiment: Tested for inhibition of visible growth of Staphylococcus aureus, benzyl-penicillin sensitive
Streptococcus pyogenes [4] = experiment: Tested for inhibition of visible growth of Streptococcus pyogenes
Enterococcus faecalis = experiment: Tested for inhibition of visible growth of Streptococcus faecalis
Streptococcus pneumoniae [5] = experiment: Tested for inhibition of visible growth of Streptococcus pneumoniae
Klebsiella pneumoniae = experiment: Tested for inhibition of visible growth of Klebsiella pneumoniae
Staphylococcus aureus [6] = experiment: Tested for inhibition of visible growth of Staphylococcus aureus
Mus musculus [7] = species: Mus musculus; experiment: Tested for the antimicrobial activity against Staphylococcus aureus (M202) in mice, perorally; details: po
Mus musculus [8] = experiment: Tested for the antimicrobial activity against Staphylococcus aureus (M202) in mice, subcutaneously; details: sc
Mus musculus [9] = species: Mus musculus; experiment: Tested for the antimicrobial activity against Streptococcus pneumoniae (D137) in mice, perorally; details: po
Mus musculus [10] = experiment: Tested for the antimicrobial activity against Streptococcus pneumoniae (D137) in mice, subcutaneously; details: sc
Mus musculus [11] = experiment: Tested for the antimicrobial activity against Streptococcus pneumoniae (D815) in mice, subcutaneously; details: sc
Mus musculus [12] = species: Mus musculus; experiment: Tested for the antimicrobial activity against Streptococcus pneumoniae (D815) in mice, perorally; details: po
Mus musculus [13] = species: Mus musculus; experiment: Tested for the antimicrobial activity against Streptococcus pyogenes (ST139) in mice, perorally; details: po
Mus musculus [14] = experiment: Tested for the antimicrobial activity against Streptococcus pyogenes (ST139) in mice, subcutaneously; details: sc
Mus musculus [15] = species: Mus musculus; experiment: Tested for the antimicrobial activity against Streptococcus pyogenes (St141) in mice, perorally; details: po
Mus musculus [16] = experiment: Tested for the antimicrobial activity against Streptococcus pyogenes (St141) in mice, subcutaneously; details: sc
Mus musculus [17] = experiment: Tested for the antimicrobial activity against Staphylococcus aureus (M240) in mice, subcutaneously; details: sc
Pseudomonas aeruginosa = experiment: Tested for inhibition of visible growth of Pseudomonas aeruginosa
Mus musculus [18] = species: Mus musculus; experiment: Tested for the antimicrobial activity against Staphylococcus aureus (M240) in mice, perorally; details: po
Escherichia coli [19] = experiment: Tested for the antimicrobial activity against Escherichia coli in mice perorally; details: po
Escherichia coli [20] = experiment: Tested for the antimicrobial activity against Escherichia coli in mice
[21] = (§1) Tested for the antimicrobial activity against Salmonella schottmuelleri in mice
[22] = as §1; remark: listed apart in the source
Staphylococcus aureus [23] = experiment: Tested for the antimicrobial activity against Staphylococcus aureus
Streptococcus pneumoniae [24] = experiment: (§2) Tested for the antimicrobial activity against Streptococcus pneumoniae in mice
Streptococcus pneumoniae [25] = experiment: as §2; remark: listed apart in the source
Streptococcus pyogenes [26] = experiment: (§3) Tested for the antimicrobial activity against Streptococcus pyogenes in mice
Streptococcus pyogenes [27] = experiment: as §3; remark: listed apart in the source
Staphylococcus aureus [28] = experiment: Tested for the antimicrobial activity against Staphylococcus aureus, benzyl-penicillin sensitive in mice, perorally; details: po

MIC (Enterobacter cloacae) [µg/mL]	MIC (Klebsiella aerogenes) [µg/mL]	MIC (Escherichia coli [1]) [µg/mL]	MIC (Proteus mirabilis) [µg/mL]	MIC [2] [µg/mL]	MIC (Staphylococcus aureus [3]) [µg/mL]	MIC (Streptococcus pyogenes [4]) [µg/mL]	MIC (Enterococcus faecalis) [µg/mL]	MIC (Streptococcus pneumoniae [5]) [µg/mL]	MIC (Klebsiella pneumoniae) [µg/mL]	MIC (Staphylococcus aureus [6]) [µg/mL]	SMILES	further results
> 200	> 200	> 200	> 200	100 (≈ 255 µM)	3.1 (≈ 7.92 µM)	0.4 (≈ 1.02 µM)	> 200	6.2 (≈ 15.8 µM)	> 200	6.2 (≈ 15.8 µM)	CC1=C(C(=O)O)N2C(=O)C(NC(=O)C(N)c3cccc4c3OCO4)C2SC1 (stereo not given)	–
> 200	> 200	200	> 200	100	0.8	0.8	> 200	1.6	200	6.2	CC1=C(C(=O)O)N2C(=O)C(NC(=O)C(N)c3ccc4c(c3)OCCO4)C2SC1 (mixture of isomers)	–
> 200	> 200	100 (≈ 257 µM)	> 200	50 (≈ 128 µM)	1.6 (≈ 4.11 µM)	0.4 (≈ 1.03 µM)	> 200	3.1 (≈ 7.96 µM)	50 (≈ 128 µM)	3.1 (≈ 7.96 µM)	CC1=C(C(=O)O)N2C(=O)C(NC(=O)C(N)c3ccc4c(c3)CCO4)C2SC1 (racemic)	–
100 (≈ 223 µM)	100 (≈ 223 µM)	25 (≈ 55.9 µM)	50 (≈ 112 µM)	3.1 (≈ 6.93 µM)	0.8 (≈ 1.79 µM)	0.1 (≈ 0.223 µM)	50 (≈ 112 µM)	0.1 (≈ 0.223 µM)	6.2 (≈ 13.9 µM)	3.1 (≈ 6.93 µM)	CC(=O)OCC1=C(C(=O)O)N2C(=O)C(NC(=O)[C@H](N)c3ccc4c(c3)CCO4)C2SC1 (stereo not given in full)	–
> 200	> 200	25 (≈ 55.5 µM)	50 (≈ 111 µM)	6.2 (≈ 13.8 µM)	0.8 (≈ 1.78 µM)	0.1 (≈ 0.222 µM)	> 200	0.1 (≈ 0.222 µM)	25 (≈ 55.5 µM)	3.1 (≈ 6.88 µM)	CC(=O)OCC1=C(C(=O)O)N2C(=O)C(NC(=O)C(O)c3ccc4c(c3)OCO4)C2SC1 (racemic)	–
> 200	> 200	100 (≈ 222 µM)	100 (≈ 222 µM)	25 (≈ 55.6 µM)	3.1 (≈ 6.9 µM)	0.2 (≈ 0.445 µM)	200 (≈ 445 µM)	0.2 (≈ 0.445 µM)	50 (≈ 111 µM)	3.1 (≈ 6.9 µM)	CC(=O)OCC1=C(C(=O)O)N2C(=O)C(NC(=O)C(N)c3cccc4c3OCO4)C2SC1 (racemic)	–
> 100	> 100	25 (≈ 63.5 µM)	25 (≈ 63.5 µM)	1.6 (≈ 4.07 µM)	0.1 (≈ 0.254 µM)	≤ 0.03	3.1 (≈ 7.88 µM)	≤ 0.03	6.2 (≈ 15.8 µM)	100 (≈ 254 µM)	CC1(C)SC2C(NC(=O)C(N)c3ccc4c(c3)OCO4)C(=O)N2C1C(=O)O (stereo not given)	ED50 (Mus musculus [7]): 0.25 mg/kg; ED50 (Mus musculus [8]): 0.53 mg/kg; ED50 (Mus musculus [9]): 0.35 mg/kg; ED50 (Mus musculus [10]): 0.16 mg/kg; ED50 (Mus musculus [11]): 0.078 mg/kg; ED50 (Mus musculus [12]): 0.25 mg/kg; ED50 (Mus musculus [13]): 0.29 mg/kg; ED50 (Mus musculus [14]): 0.06 mg/kg; ED50 (Mus musculus [15]): 0.22 mg/kg; ED50 (Mus musculus [16]): 0.13 mg/kg; ED50 (Mus musculus [17]): < 0.063 mg/kg; MIC (Pseudomonas aeruginosa): > 100 µg/mL; ED50 (Mus musculus [18]): 0.32 mg/kg
> 200	> 200	50 (≈ 111 µM)	100 (≈ 222 µM)	12.5 (≈ 27.8 µM)	3.1 (≈ 6.9 µM)	0.2 (≈ 0.445 µM)	200 (≈ 445 µM)	0.4 (≈ 0.89 µM)	25 (≈ 55.6 µM)	6.2 (≈ 13.8 µM)	CC(=O)OCC1=C(C(=O)O)N2C(=O)C(NC(=O)C(N)c3ccc4c(c3)OCO4)C2SC1 (racemic)	–
> 200	> 200	50 (≈ 111 µM)	50 (≈ 111 µM)	12.5 (≈ 27.9 µM)	0.8 (≈ 1.78 µM)	0.1 (≈ 0.223 µM)	> 200	0.1 (≈ 0.223 µM)	50 (≈ 111 µM)	3.1 (≈ 6.91 µM)	CC(=O)OCC1=C(C(=O)O)N2C(=O)C(NC(=O)C(O)c3ccc4c(c3)CCO4)C2SC1 (racemic)	–
> 100	25 (≈ 48.1 µM)	12.5 (≈ 24.1 µM)	> 100	6.2 (≈ 11.9 µM)	0.8 (≈ 1.54 µM)	0.05 (≈ 0.0962 µM)	100 (≈ 192 µM)	≤ 0.03	6.2 (≈ 11.9 µM)	3.1 (≈ 5.97 µM)	Cc1nnc(SCC2=C(C(=O)O)N3C(=O)C(NC(=O)[C@H](N)c4ccc5c(c4)CCO5)C3SC2)s1 (stereo not given in full)	ED50 (Escherichia coli [19]): 20 mg/kg; ED50 (Escherichia coli [20]): 9.3 mg/kg; ED50 [21]: 31 mg/kg; ED50 [22]: 23 mg/kg; ED50 (Staphylococcus aureus [23]): 0.88 mg/kg; ED50 (Streptococcus pneumoniae [24]): 1.6 mg/kg; ED50 (Streptococcus pneumoniae [25]): 0.89 mg/kg; ED50 (Streptococcus pyogenes [26]): 0.78 mg/kg; ED50 (Streptococcus pyogenes [27]): 0.44 mg/kg; ED50 (Staphylococcus aureus [28]): 1.8 mg/kg
–	–	> 50	> 50	50 (≈ 102 µM)	6.2 (≈ 12.6 µM)	1.6 (≈ 3.26 µM)	> 100	–	> 50	–	N[C@H](C(=O)NC1C(=O)N2C(C(=O)O)=C(CSc3c[nH]nn3)CSC12)c1ccc2c(c1)OCO2 (stereo not given in full)	–
> 100	> 100	25 (≈ 63.9 µM)	12.5 (≈ 31.9 µM)	1.6 (≈ 4.09 µM)	0.05 (≈ 0.128 µM)	≤ 0.03	3.1 (≈ 7.92 µM)	≤ 0.03	6.2 (≈ 15.8 µM)	100 (≈ 255 µM)	CC1(C)SC2C(NC(=O)[C@H](N)c3ccc4c(c3)CCO4)C(=O)N2C1C(=O)O (stereo not given in full)	ED50 (Mus musculus [7]): 0.41 mg/kg; ED50 (Mus musculus [8]): 0.89 mg/kg; ED50 (Mus musculus [9]): 0.22 mg/kg; ED50 (Mus musculus [10]): 0.14 mg/kg; ED50 (Mus musculus [11]): 0.078 mg/kg; ED50 (Mus musculus [12]): 0.16 mg/kg; ED50 (Mus musculus [13]): 0.084 mg/kg; ED50 (Mus musculus [14]): 0.053 mg/kg; ED50 (Mus musculus [15]): 0.11 mg/kg; ED50 (Mus musculus [16]): 0.07 mg/kg; ED50 (Mus musculus [17]): 0.063 mg/kg; MIC (Pseudomonas aeruginosa): > 100 µg/mL; ED50 (Mus musculus [18]): 0.4 mg/kg
100 (≈ 237 µM)	50 (≈ 118 µM)	50 (≈ 118 µM)	3.1 (≈ 7.34 µM)	50 (≈ 118 µM)	0.8 (≈ 1.89 µM)	0.8 (≈ 1.89 µM)	> 100	0.2 (≈ 0.473 µM)	100 (≈ 237 µM)	12.5 (≈ 29.6 µM)	CC1(C)SC2C(NC(=O)C(C(=O)O)c3ccc4c(c3)OCO4)C(=O)N2C1C(=O)O (racemic)	MIC (Pseudomonas aeruginosa): 3.1 µg/mL (≈ 7.34 µM)
–	–	> 100	> 100	> 100	25 (≈ 63.9 µM)	12.5 (≈ 31.9 µM)	> 100	50 (≈ 128 µM)	> 100	–	CC1=C(C(=O)O)N2C(=O)C(NC(=O)[C@@H](N)c3ccc4c(c3)OCO4)C2SC1 (stereo not given in full)	–
–	–	> 100	> 100	50 (≈ 95.9 µM)	6.2 (≈ 11.9 µM)	0.8 (≈ 1.53 µM)	> 100	0.8 (≈ 1.53 µM)	> 100	–	Cc1nnc(SCC2=C(C(=O)O)N3C(=O)C(NC(=O)[C@@H](N)c4ccc5c(c4)OCO5)C3SC2)s1 (stereo not given in full)	–
6.2 (≈ 16.4 µM)	6.2 (≈ 16.4 µM)	6.2 (≈ 16.4 µM)	0.8 (≈ 2.11 µM)	6.2 (≈ 16.4 µM)	0.4 (≈ 1.06 µM)	0.1 (≈ 0.264 µM)	> 100	0.4 (≈ 1.06 µM)	6.2 (≈ 16.4 µM)	25 (≈ 66.1 µM)	CC1(C)S[C@@H]2[C@H](NC(=O)C(C(=O)O)c3ccccc3)C(=O)N2[C@H]1C(=O)O (stereo not given in full) [CARBENICILLIN]	MIC (Pseudomonas aeruginosa): 0.8 µg/mL (≈ 2.11 µM)

SMILES	MIC (Enterobacter cloacae) [µg/mL]	MIC (Klebsiella aerogenes) [µg/mL]	MIC (Escherichia coli [1]) [µg/mL]	MIC (Proteus mirabilis) [µg/mL]	MIC [2] [µg/mL]	MIC (Staphylococcus aureus [3]) [µg/mL]	MIC (Streptococcus pyogenes [4]) [µg/mL]	MIC (Enterococcus faecalis) [µg/mL]	MIC (Streptococcus pneumoniae [5]) [µg/mL]	MIC (Klebsiella pneumoniae) [µg/mL]	MIC (Staphylococcus aureus [6]) [µg/mL]	further results
CC(=O)OCC1=C(C(=O)O)N2C(=O)[C@@H](NC(=O)Cc3cccs3)[C@H]2SC1 [CEPHALOTHIN]	> 100	100 (≈ 252 µM)	12.5 (≈ 31.5 µM)	12.5 (≈ 31.5 µM)	3.1 (≈ 7.82 µM)	0.2 (≈ 0.504 µM)	0.1 (≈ 0.252 µM)	100 (≈ 252 µM)	0.1 (≈ 0.252 µM)	3.1 (≈ 7.82 µM)	0.8 (≈ 2.02 µM)	–
